Test results as given in US7316928B2, “Plant fatty acid amide hydrolases” (The University of North Texas, priority 2003, dated 2008).
Values joined by “and” are separate entries in the source; they are usually repeats but may differ in a detail not shown here. Equal entries are not always repeated. Where two headings read alike, the source gives them in different places. Values belong to the molecule of their own block, whether it stands above or below them.

Experiments:
[1] = system: Arabidopsis seedlings; assay: Arabidopsis seedling growth / root elongation on MS medium with exogenous NAE 12:0; assay type: in vivo; conditions: for EC50: Arabidopsis thaliana
Procedure: FIG. 11A-11C. Lengths of Arabidopsis seedling radicles/roots were measured daily after planting on MS medium that contained increasing concentrations of NAE 12:0. Data points are averages and standard deviation of 20 or more seedlings germinated and grown under identical conditions. There was a pronounced dose-dependent reduction in radicle/root length and elongation rate, similar to that shown previously (Blancaflor et al., 2003) for wildtype seedlings (FIG. 11A), and this seedling growth inhibition was more pronounced at higher NAE concentrations for both knockout lines (FIG. 11B and FIG. 11C).
FIG. 12. The rate of root elongation was calculated by a linear regression of the data presented in FIG. 11, and plotted as a function of NAE concentration.
Composite images were taken from seedlings grown on different plates, and were representative of typical replicate experiments. […] The altered profiles of extractable FAAH enzyme activities in mutant and transgenic plants led to predictable differences in the sensitivity of seedlings to exogenous NAE 12:0 indicating a modified ability of these plants to metabolize NAEs. Seedling growth of Arabidopsis wildtype seedlings was inhibited by exogenous treatment of NAE12:0).

[2] = system: rice (Os) FAAH; assay: NAE amidohydrolase activity of E. coli lysates expressing rice (Os) FAAH cDNA; assay type: biochemical, Oryza sativa; conditions: E. coli lysate, compared with NAE 18:2
[3] = molecular target: Medicago truncatula (Mt) FAAH (Medicago truncatula, UniProt G7ISB0, G303S); assay type: biochemical; conditions: E. coli lysate, compared with NAE 18:2
Sequence of Medicago truncatula (Mt) FAAH (G7ISB0 whole entry G303S, looked up, the tested form may be a part): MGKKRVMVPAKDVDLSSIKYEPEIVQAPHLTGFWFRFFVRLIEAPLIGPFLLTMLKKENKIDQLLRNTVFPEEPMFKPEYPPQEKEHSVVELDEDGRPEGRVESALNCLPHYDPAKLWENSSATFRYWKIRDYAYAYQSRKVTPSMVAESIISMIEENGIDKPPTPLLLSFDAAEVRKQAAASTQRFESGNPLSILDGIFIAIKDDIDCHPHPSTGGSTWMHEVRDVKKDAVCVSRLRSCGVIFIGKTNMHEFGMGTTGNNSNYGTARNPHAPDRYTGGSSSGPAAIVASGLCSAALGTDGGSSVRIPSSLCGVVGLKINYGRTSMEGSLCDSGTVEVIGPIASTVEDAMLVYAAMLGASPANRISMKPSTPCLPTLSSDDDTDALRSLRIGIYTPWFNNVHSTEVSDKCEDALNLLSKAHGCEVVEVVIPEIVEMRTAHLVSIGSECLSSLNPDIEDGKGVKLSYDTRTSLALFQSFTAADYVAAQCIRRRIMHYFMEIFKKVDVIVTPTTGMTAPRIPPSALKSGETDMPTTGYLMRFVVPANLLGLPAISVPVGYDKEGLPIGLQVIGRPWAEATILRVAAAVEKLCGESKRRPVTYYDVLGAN

[4] = molecular target: Arabidopsis NAE amidohydrolase (Arabidopsis thaliana, UniProt Q7XJJ7); assay: NAE amidohydrolase activity survey in crude E. coli lysates expressing Arabidopsis cDNA; assay type: biochemical
[5] = molecular target: Arabidopsis NAE amidohydrolase (FAAH) (Arabidopsis thaliana, UniProt Q7XJJ7); assay type: biochemical
[6] = substrate: CCCCCCCCCCCCCC(=O)NCCO; assay: purified protein, by the assay type; conditions: other: apparent, substrate, 1 μg protein, pH 9.0, 30 min, 30° C., Michaelis-Menten fit
[7] = substrate: CCCCCCCCCCCC(=O)NCCO; assay: purified protein, by the assay type; conditions: other: apparent, substrate, 1 μg protein, pH 9.0, 30 min, 30° C., Michaelis-Menten fit
[8] = substrate: CCCCCCCCCCCCCCCC(=O)NCCO; assay: purified protein, by the assay type; conditions: other: apparent, substrate, 1 μg protein, pH 9.0, 30 min, 30° C., Michaelis-Menten fit
[9] = substrate: CCCCC/C=C\C/C=C\C/C=C\C/C=C\CCCC(=O)NCCO; assay: purified protein, by the assay type; conditions: other: apparent, substrate, 1 μg protein, pH 9.0, 30 min, 30° C., Michaelis-Menten fit
[10] = substrate: CCCCC/C=C\C/C=C\CCCCCCCC(=O)NCCO; assay: purified protein, by the assay type; conditions: other: apparent, substrate, 1 μg protein, pH 9.0, 30 min, 30° C., Michaelis-Menten fit

Molecule: CCCCCCCCCCCC(=O)NCCO [NAE 12:0, N-lauroylethanolamine]
EC50 ([1]; FAAH knockout seedlings, first value of the two knockout lines, read-out: EC50, rate of root elongation): 18 µM
EC50 ([1]; FAAH knockout seedlings, second value of the two knockout lines, read-out: EC50, rate of root elongation): 23 µM
EC50 ([1]; read-out: concentration that reduced growth by 50% (EC50), rate of root elongation, wildtype seedlings): ~29 µM
seedling growth inhibition ([1]; FAAH gene expression reduced, particularly knockouts, 14 d growth): greatly exacerbated
seedling sensitivity to application ([1]; FAAH overexpressors, 14 d growth): essentially insensitive
seedling growth ([1]; wildtype seedlings, continuous exposure, 14 d growth): reduced

Molecule: CCCCCCCCCCCCCCCC(=O)NCCO [NAE 16:0, N-palmitoylethanolamine]
suitability as substrate [2]: equally suitable substrates
suitability as substrate [3]: equally suitable substrates

Molecule: CCCCC/C=C\C/C=C\CCCCCCCC(=O)NCCO [NAE 18:2, N-linoleoylethanolamine]
hydrolysis as substrate by recombinant Arabidopsis NAE amidohydrolase [4]: effectively hydrolyzed

Molecule: O=S(=O)(F)Cc1ccccc1 [PMSF, Phenylmethylsulfonyl fluoride]
Specific Activity [5]: 11.34 ± 0.55 μmol h^−1 mg^−1 Protein and 9.06 ± 1.86 μmol h^−1 mg^−1 Protein and 7.89 ± 0.37 μmol h^−1 mg^−1 Protein and 6.72 ± 0.70 μmol h^−1 mg^−1 Protein and 5.96 ± 0.43 μmol h^−1 mg^−1 Protein

hydrolysis as substrate by recombinant Arabidopsis NAE amidohydrolase [4]: did not hydrolyze
Molecule: ceramide
influence on NAE hydrolysis [4]: nor did ceramide influence NAE hydrolysis

B1: recombinant Arabidopsis thaliana NAE amidohydrolase (Arabidopsis thaliana) (protein)
chain: MGKYQVMKRASEVDLSTVKYKAETMKAPHLTGLSFKLFVNLLEAPLIGSLIVDYLKKDNGMTKIFRNTVIPEEPMFRPEFPSQEPEHDVVIVGEDESPIDRLETALKCLPQYDPSRSLHADPVSSFRYWKIRDYAYAYRSKLTTPLQVAKRIISIIEEFGYDKPPTPFLIRFDANEVIKQAEASTRRFEQGNPISVLDGIFVTIKDDIDCLPHPTNGGTTWLHEDRSVEKDSAVVSKLRSCGAILLGKANMHELGMGTTGNNSNYGTTRNPHDPKRYTGGSSSGSAAIVAAGLCSAALGTDGGGSVRIPSALCGITGLKTTYGRTDMTGSLCEGGTVEIIGPLASSLEDAFLVYAAILGSSSADRYNLKPSPPCFPKLLSHNGSNAIGSLRLGKYTKWFNDVSSSDISDKCEDILKLLSNNHGCKVVEIVVPELEEMRAAHVISIGSPTLSSLTPYCEAGKNSKLSYDTRTSFAIFRSFSASDYIAAQCLRRRLMEYHLNIFKDVDVIVTPTTGMTAPVIPPDALKNGETNIQVTTDLMRFVLAANLLGFPAISVPVGYDKEGLPIGLQIMGRPWAEATVLGLAAAVEELAPVTKKPAIFYDILNTN
Km [6]: 37.0 ± 5.6 µM
Vmax [6]: 0.152 µmol/min/mg
Km [7]: 17.6 ± 2.8 µM
Vmax [7]: 0.232 µmol/min/mg
Km [8]: 50.8 ± 14.1 µM
Vmax [8]: 0.202 µmol/min/mg
Km [9]: 13.6 ± 2.1 µM
Vmax [9]: 0.298 µmol/min/mg
Km [10]: 26.2 ± 5.3 µM
Vmax [10]: 0.235 µmol/min/mg
